Source: doi:10.1101/2024.08.19.608619, “Discovery of potent SARS-CoV-2 nsp3 macrodomain inhibitors uncovers lack of translation to cellular antiviral response” (bioRxiv, 2024)
Where two headings read alike, the source gives them in different places.

Assays:
Test in all cases: biochemical
Design in all cases: In vitro kinase panel profiling, per cent remaining kinase activity at 10 uM
[1] = molecular target: T1, Rsk1(h) (Homo sapiens, UniProt Q15418); conditions: atp_concentration=45, read-out: % of control remaining
T1 construct: gene RPS6KA1
T1 sequence (Q15418 whole entry): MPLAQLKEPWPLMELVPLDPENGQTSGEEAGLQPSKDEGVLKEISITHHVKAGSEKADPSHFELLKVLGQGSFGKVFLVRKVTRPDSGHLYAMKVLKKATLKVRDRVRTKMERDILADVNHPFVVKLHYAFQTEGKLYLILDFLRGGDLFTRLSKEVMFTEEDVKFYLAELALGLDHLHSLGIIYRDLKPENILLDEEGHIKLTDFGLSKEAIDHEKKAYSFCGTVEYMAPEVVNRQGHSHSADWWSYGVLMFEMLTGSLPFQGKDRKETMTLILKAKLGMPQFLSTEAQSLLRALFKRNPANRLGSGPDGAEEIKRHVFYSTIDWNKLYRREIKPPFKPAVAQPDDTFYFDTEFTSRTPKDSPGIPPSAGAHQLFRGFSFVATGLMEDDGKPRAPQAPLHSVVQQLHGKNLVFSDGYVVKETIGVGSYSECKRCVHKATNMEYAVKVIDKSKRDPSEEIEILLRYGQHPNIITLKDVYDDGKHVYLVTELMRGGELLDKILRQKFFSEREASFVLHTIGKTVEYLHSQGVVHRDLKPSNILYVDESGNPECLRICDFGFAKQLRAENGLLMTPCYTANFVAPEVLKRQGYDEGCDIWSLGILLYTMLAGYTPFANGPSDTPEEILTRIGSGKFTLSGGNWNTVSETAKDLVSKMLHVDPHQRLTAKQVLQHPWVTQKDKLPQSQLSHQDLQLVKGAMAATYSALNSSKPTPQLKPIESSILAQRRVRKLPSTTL
Text: (§1) We derisk potential for off-target activity by profiling the compound in a CEREP panel, a standard secondary pharmacology assessment, as well as a kinase panel to derisk a potential hinge-binding motif in our leads, and a PARP panel to derisk activity against human […]. Reassuringly, the compounds are selective, with the only off-targets being moderate human CHRM2 and KOR receptors activity associated with ASAP-0011198.

[2] = molecular target: T2, eEF-2K(h) (Homo sapiens, UniProt O00418); conditions: atp_concentration=15, read-out: % of control remaining
T2 construct: gene EEF2K
T2 sequence (O00418 1-725): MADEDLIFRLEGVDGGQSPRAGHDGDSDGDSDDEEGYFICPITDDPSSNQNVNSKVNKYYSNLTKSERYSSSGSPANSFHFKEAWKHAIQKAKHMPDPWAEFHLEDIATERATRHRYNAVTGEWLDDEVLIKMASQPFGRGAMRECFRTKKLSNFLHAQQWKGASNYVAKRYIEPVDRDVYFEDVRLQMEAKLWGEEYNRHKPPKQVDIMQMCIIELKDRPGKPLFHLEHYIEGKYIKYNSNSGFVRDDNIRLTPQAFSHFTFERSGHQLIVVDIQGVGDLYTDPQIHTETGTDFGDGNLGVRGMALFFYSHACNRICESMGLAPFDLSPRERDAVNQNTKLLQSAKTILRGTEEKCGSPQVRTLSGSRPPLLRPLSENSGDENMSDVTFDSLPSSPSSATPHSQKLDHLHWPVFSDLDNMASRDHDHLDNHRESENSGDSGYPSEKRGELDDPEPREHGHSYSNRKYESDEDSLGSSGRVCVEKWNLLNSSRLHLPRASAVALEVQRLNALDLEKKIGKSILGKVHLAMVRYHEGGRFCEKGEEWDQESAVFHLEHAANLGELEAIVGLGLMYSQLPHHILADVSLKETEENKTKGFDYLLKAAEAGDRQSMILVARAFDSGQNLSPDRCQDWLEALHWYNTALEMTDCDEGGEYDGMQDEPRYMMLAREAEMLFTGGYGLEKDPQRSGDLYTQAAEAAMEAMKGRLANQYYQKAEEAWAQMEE
Text: as §1

[3] = molecular target: T3, PKG1α(h) (Homo sapiens, UniProt Q13976); conditions: atp_concentration=90, read-out: % of control remaining
T3 construct: gene PRKG1; isoform alpha
T3 sequence (Q13976 1-671): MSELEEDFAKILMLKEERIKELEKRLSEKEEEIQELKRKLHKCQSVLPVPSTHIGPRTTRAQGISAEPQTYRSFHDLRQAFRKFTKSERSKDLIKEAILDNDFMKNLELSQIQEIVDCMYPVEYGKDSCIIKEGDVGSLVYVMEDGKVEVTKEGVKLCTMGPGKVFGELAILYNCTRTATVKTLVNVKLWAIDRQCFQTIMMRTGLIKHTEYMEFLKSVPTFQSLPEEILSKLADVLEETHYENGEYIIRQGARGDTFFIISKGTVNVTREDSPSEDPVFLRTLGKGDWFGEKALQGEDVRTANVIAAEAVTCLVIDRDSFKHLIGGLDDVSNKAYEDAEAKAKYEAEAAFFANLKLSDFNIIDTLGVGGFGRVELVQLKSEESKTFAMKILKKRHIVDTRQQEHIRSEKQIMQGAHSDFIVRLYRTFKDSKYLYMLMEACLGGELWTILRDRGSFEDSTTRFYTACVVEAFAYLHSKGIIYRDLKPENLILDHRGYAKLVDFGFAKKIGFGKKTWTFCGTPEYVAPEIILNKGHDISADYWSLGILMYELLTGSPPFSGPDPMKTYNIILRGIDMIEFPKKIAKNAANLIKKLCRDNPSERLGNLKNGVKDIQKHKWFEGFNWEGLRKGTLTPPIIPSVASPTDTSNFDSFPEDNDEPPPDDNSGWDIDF
Text: as §1

[4] = molecular target: T4, NEK2(h) (Homo sapiens, UniProt P51955); conditions: atp_concentration=120, read-out: % of control remaining
T4 sequence (P51955 1-445): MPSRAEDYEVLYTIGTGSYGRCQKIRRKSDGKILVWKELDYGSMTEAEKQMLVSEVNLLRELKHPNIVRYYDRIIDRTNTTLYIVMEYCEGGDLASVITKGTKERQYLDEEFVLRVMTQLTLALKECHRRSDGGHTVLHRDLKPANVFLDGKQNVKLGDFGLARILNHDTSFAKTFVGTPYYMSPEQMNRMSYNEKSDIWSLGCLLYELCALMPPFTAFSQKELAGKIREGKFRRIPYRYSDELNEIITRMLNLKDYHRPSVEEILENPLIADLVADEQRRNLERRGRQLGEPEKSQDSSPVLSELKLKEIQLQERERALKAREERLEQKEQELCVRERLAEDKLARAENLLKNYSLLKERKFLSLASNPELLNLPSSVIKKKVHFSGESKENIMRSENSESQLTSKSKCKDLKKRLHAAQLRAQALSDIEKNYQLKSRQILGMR
Text: as §1

[5] = molecular target: T5, CHK1(h) (Homo sapiens, UniProt O14757); conditions: atp_concentration=90, read-out: % of control remaining
T5 construct: gene CHEK1
T5 sequence (O14757 1-476): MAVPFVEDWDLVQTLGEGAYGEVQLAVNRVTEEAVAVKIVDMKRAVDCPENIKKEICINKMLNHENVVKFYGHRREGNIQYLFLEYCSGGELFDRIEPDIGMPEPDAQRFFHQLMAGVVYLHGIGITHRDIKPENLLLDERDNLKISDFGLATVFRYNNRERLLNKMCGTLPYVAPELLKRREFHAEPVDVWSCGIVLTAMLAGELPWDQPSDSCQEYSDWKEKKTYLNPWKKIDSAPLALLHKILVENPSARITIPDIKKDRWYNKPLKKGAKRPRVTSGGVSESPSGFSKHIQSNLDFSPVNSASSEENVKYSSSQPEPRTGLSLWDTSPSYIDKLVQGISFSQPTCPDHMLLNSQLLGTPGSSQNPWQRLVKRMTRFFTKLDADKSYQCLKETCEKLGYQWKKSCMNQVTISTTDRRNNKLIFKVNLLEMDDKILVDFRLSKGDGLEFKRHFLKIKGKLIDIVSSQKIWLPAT
Text: as §1

Structure (SMILES) | remaining activity at 10 µM ([1]; batch_name=ASAP-0014722-002) [%] | remaining activity at 10 µM ([2]; batch_name=ASAP-0014722-002) [%] | remaining activity at 10 µM ([3]; batch_name=ASAP-0014722-002) [%] | remaining activity at 10 µM ([4]; batch_name=ASAP-0014722-002) [%] | remaining activity at 10 µM ([5]; batch_name=ASAP-0014722-002) [%] | remaining activity at 10 µM ([1]; batch_name=ASAP-0015381-001) [%] | remaining activity at 10 µM ([2]; batch_name=ASAP-0015381-001) [%] | remaining activity at 10 µM ([3]; batch_name=ASAP-0015381-001) [%] | remaining activity at 10 µM ([4]; batch_name=ASAP-0015381-001) [%] | remaining activity at 10 µM ([5]; batch_name=ASAP-0015381-001) [%]
C[C@H](C(=O)O)[C@@H](NC(=O)c1ncnc2[nH]ccc12)c1ccc(Br)cc1 [ASAP-0014722] | 88 | 85 | 118 | 101 | 99 | – | – | – | – | –
COc1ccc([C@H](Cc2nnn[nH]2)NC(=O)c2ncnc3[nH]ccc23)cc1 [ASAP-0015381] | – | – | – | – | – | 102 | 96 | 121 | 106 | 110
